Assay [1] deals with Fe-ADP-ascorbate induced lipid peroxidation (LPO) in rat brain. The experiment in a line: Inhibition of Fe-ADP-ascorbate induced lipid peroxidation (LPO) in rat brain homogenate. Format: biochemical, Albino rats (Sprague Dawley strain). The note with it: 37° C., 30 minutes. The protocol: Inhibition of Fe-ADP-ascorbate induced lipid peroxidation (LPO) in rat brain by DBP and DCPs
Albino rats (Sprague Dawley strain) were sacrificed by cervical dislocation and decapitation. Brains were dissected out and 10% w/v homogenate was prepared in 0.15 M KCl. The brain homogenate was centrifuged at 1500 rpm for 10 minutes and the supernatant was used for the study. The incubation mixture contained in a final volume of 1 ml., brain homogenate (500 μl), distilled water (100 μl) or test compounds dissolved in solvents at different concentrations (10 to 100 μg/ml of the final volume). Peroxidation was initiated by adding FeCl3 (100 μM), ADP (1 mM) and ascorbate (100 μM) to give the final concentration stated. After incubating at 37° C. for 30 minutes, the reaction was stopped by adding acetic acid buffer (1.5 ml, pH 3.5) and thiobarbituric acid solution (1.5 ml, pH 7.4) to 1 ml of LPO mixture. The reaction mixture was heated at 85° C. for 30 minutes, cooled, centrifuged (2000 rpm for 10 minutes) and the absorbance of the supernatant was measured at 532 nm. IC50 values were calculated in the usual way by plotting the concentration of the test compounds versus percent inhibition of LPO.

Assay [2] concerns chronic stress (CS) induced gastric ulceration. The experiment in a line: Chronic stress (CS) induced gastric ulceration in albino rats. In kind it is in vivo, CF strain albino rats. The note with it: 14 days. Here is the method: A comparative study of shilajit bioactive constituents from EPA, DHA, DBPs and DCPs, was carried out to determine their adaptogenic potency against chronic stress (CS) in albino rats. It is now increasingly becoming evident that CS of a mild but unpredictable nature which the animal is unable to cope with (inescapable stress), is clinically more relevant than acute stress even when the latter is severe in nature. It is believed that chronic, unpredictable, and inescapable stress resembles the situation faced by an individual that ultimately results in chronic stress-induced physiological perturbation and disease. Animals The investigation was carried out on CF strain albino rats, of either sex (140-180 g), housed in colony cages at an ambient temperature of 25±2° C., with a 12 h. light/12 h. dark cycle. […] The procedure of Armario et al (1993) was followed. Briefly, rats were randomly assigned to control or stress groups. Those assigned to the stress groups were subjected to 1 h foot shock, through a grid floor, every day for 14 days. The duration of each shock (2 mA) and the intervals between the shocks were randomly programmed between 3-5 sec. and 10-110 sec., respectively, to make the stress unpredictable. The shock chamber had high walls which made escape from shock impossible. EPA (Aldrich, Milw.), DHA (Sigma), DBPs and DCPs were separately suspended/dissolved in 0.3% carboxymethylcellulose(CMC) in distilled water and administered orally (p.o.), for 14 days, starting on day 1, 60 min prior to electroshock. Control animals received only the vehicle in either unstressed or the stressed rats for the same period in a volume of 2.5 ml/kg, p.o. Estimations were conducted on day 14, one hour after the last stress procedure and two hours after the last test compound or vehicle was administered. Gastric ulcerations (Bhattacharya et al., 1987). On day 14, rats were killed by decapitation the stomach was split open along the greater curvature and the numbers of discrete ulcers were noted. […] Thereafter, the pooled ulcer score was calculated according to the method of Bhattacharya et al. (1987).

Assay [3] relates to adrenal gland ascorbic acid and corticosterone concentrations and plasma corticosterone level. As to the kind of experiment: CS induced alteration of adrenal gland ascorbic acid and corticosterone and plasma corticosterone (adrenocorticoid activity). Format: in vivo, CF strain albino rats. Particulars: 5 mg/kg p.o. + CS. Here is the method: Animals The investigation was carried out on CF strain albino rats, of either sex (140-180 g), housed in colony cages at an ambient temperature of 25±2° C., with a 12 h. light/12 h. dark cycle. Experiments were conducted between 0900 and 1400 hrs. • EPA, Eicosapentaenoic acid • DHA, Docosahexaenoic acid • DBPs, 1:1 mixture of 3-hydroxy- and 3,8-dihydroxydibenzo-alpha-pyrone • DCPs, DBP-chromoproteins
The procedure of Armario et al (1993) was followed. Briefly, rats were randomly assigned to control or stress groups. Those assigned to the stress groups were subjected to 1 h foot shock, through a grid floor, every day for 14 days. The duration of each shock (2 mA) and the intervals between the shocks were randomly programmed between 3-5 sec. and 10-110 sec., respectively, to make the stress unpredictable. The shock chamber had high walls which made escape from shock impossible.
EPA (Aldrich, Milw.), DHA (Sigma), DBPs and DCPs were separately suspended/dissolved in 0.3% carboxymethylcellulose(CMC) in distilled water and administered orally (p.o.), for 14 days, starting on day 1, 60 min prior to electroshock. […]
Adrenal gland ascorbic acid (Zenker and Bernstein, 1958) and corticosterone concentrations (Selye, 1936), and plasma corticosterone levels (Selye, 1936) were determined to substantiate the validity and intensity of the stress procedure adopted.

The structures appear in SMILES notation. ≈ marks a conversion by molar mass, not a printed value.

For the compound `O=c1oc2cc(O)ccc2c2ccc(O)cc12` [3,8-Dihydroxydibenzo-alpha-pyrone], the “IC50 (LPO)” value in assay [1] came to 30 µg/mL (≈ 131 µM).

Turning to `O=C1O[C@H]([C@@H](O)CO)C(O)=C1O` [Ascorbic acid], the “IC50 (LPO)” value in assay [1] is 70 µg/mL (≈ 397 µM). On to `CC/C=C\C/C=C\C/C=C\C/C=C\C/C=C\C/C=C\CCC(=O)O` [DHA, Docosahexaenoic acid], for which the results for the Ulcer incidence % in assay [2] (5 mg/kg p.o.) and in assay [2] (10 mg/kg p.o.) were 70% and 60%, respectively.

Take `CC/C=C\C/C=C\C/C=C\C/C=C\C/C=C\CCCC(=O)O` [EPA, Eicosapentaenoic acid]: the Ulcer incidence % worked out at 70% in assay [2] (5 mg/kg p.o.) and 60% in assay [2] (10 mg/kg p.o.). Further, the Adrenal corticosterone in assay [3] was 2.3 ± 0.8 μg/100 mg. For the same compound, the Plasma corticosterone in assay [3] was determined as 22.1 ± 2.9 µg/dL.

On to `CC(=O)Oc1c(C)c(C)c2c(c1C)CCC(C)(CCC[C@H](C)CCC[C@H](C)CCCC(C)C)O2` (stereo partly drawn) [Vitamin E acetate], for which the “IC50 (LPO)” value in assay [1] was 56 µg/mL.

Values taken from US20050233942A1, “Oxygenated dibenzo-alpha-pyrone chromoproteins” (priority 2004, published 2005).
